In publication PMC10695616, “Rational design peptide inhibitors of Cyclophilin D as a potential treatment for acute pancreatitis” (Medicine, 2023):
Ends that are not written are not given here.

Target: T1, Human recombinant CypD (Homo sapiens, UniProt P30405)
T1 construct: purchased Beyotime (Shanghai, China)
Assay: chymotrypsin coupled prolyl-isomerase inhibitory assay
Type: biochemical
Conditions: Suc-AAPF-AMC substrate, peptide 0.001 to 100 μM, 25 °C
Description: The method for measuring half-maximal inhibitory concentration (IC50) values of the peptides against CypD was described previously as chymotrypsin coupled prolyl-isomerase assay. Human recombinant CypD was purchased from Beyotime (Shanghai, China). The substrate solution for inhibitory assay was prepared as 100 μM Suc-AAPF-AMC (Chymotrypsin Substrate II, Sigma–Aldrich, Shanghai, China) with varied concentration of selected peptide (varied from 0.001 to 100 μM), 15 μg/mL CypD, and 0.5 M LiCl/2,2,2-trifluoroethanol. Alpha-chymotrypsin from bovine pancreas was purchased from Sigma (Shanghai, China) and dissolved in 0.001 M HCl, the concentration for chymotrypsin was prepared to 5 mg/mL. For inhibitory assay, the 96-well plate was filled with 150 μL of the substrate solution and incubated at 25 °C for 1 hour, followed by adding 40 μL of the chymotrypsin solution. The fluorescent changes under 380 nm was captured every 5 seconds for 300 seconds using Mltrospec 3100. The IC50 value was calculated which indicated the peptide concentration needed for obtaining 50% of […] inhibitory activity.
The binding affinity of selected peptides against CypD was tested using a modified inhibitory assay.[37] […] The selected 5 peptides were preincubated with CypD to validate their capability for blocking CypD activity. […] Compound C-9 was previously reported as a strong binder of CypD,[37] therefore, we adopted compound C-9 as a reference sample to evaluate the binding activity of the designed peptides.

T1 sequence (P30405 30-207): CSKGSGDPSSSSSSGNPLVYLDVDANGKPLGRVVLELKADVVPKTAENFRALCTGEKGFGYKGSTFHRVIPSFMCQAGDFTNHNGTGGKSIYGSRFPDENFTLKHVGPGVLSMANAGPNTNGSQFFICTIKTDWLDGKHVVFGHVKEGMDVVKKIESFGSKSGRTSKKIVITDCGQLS

IC50	Substance
2460 nM	WACKN [WACKN]
10500 nM	WACKQ [WACKQ]
370 nM	WACLQ [WACLQ]
2630 nM	WACNQ [WACNQ]
